Reference: US5236942A, “5-aryl-4-alkyl-3H-1,2,4-triazole-3-thiones useful in the treatment of Altzheimer's dementia” (Merrell Dow Pharmaceuticals Inc., priority 1992, dated 1993)
Like-named read-outs stand apart in the source and are kept apart here. One block for each molecule: values may come before it.

Tests used:
[1] = tested on: scopolamine-induced memory deficit in rats; assay: Working memory in the T-maze, rats treated with scopolamine; assay type: in vivo, Male Sprague-Dawley rats; conditions: for Number of errors (12 = chance response), T-maze: 24 trials, mean ± SEM, n = 12
Procedure: (§1) The maze used has the shape of a T with alleys 16 cm wide and side walls 20 cm high, the main arm being 65 cm long and the two side arms 45 cm long. Male Sprague-Dawleyrats are maintained on a 23 hour food deprivation schedule and are tested each day (Monday-Friday), each trial in the maze consisting of two runs. The rat starts at the end of the main arm and runs to the choice point where it must turn either left or right. The first is a forced run where one arm of the T-maze has been blocked off at the choice point. The remaining arm has a bowl of sweetened condensed milk as reward. On the second run the rat has a free choice of arms and learns by experience that food reward is to be found down the arm not visited on the first run. Trials are run at 30-second intervals, and the arm choice on the forced run is varied at random between trials. Arm entry is defined by the rat's placing all four paws in the arm, and incorrect selection of the arm is scored as an error. Noncompleted trials, where the rat has not made a choice within 3 minutes, are included as errors.5-(3-Fluorophenyl)-2,4-dimethyl-3H-1,2,4-triazole-3-thione is administered one hour before the first trial of each session. Impairment of performance is achieved for testing the compound of this invention in two different ways.
In the trials summarized in Table 2, the amnestic muscarinic antagonist scopolamine is administered subcutaneously at a dose of 0.15 mg/kg 15-minutes before the first trial, and there is a delay of 5-10 seconds after the forced run before the second run of the trial. […] All values are expressed as the mean number of errors per block of twenty-four trials with groups of 12 animals±the standard error of the mean. For this test, the number of errors expected by random response, i.e., the selection of the correct arm 50% of the time, is 12.

benzodiazepine receptor = assay: Inverse agonism at the benzodiazepine receptor, in the hippocampal slice tests; assay type: cell-based; conditions: in these tests
Source text: (§2) Experiments also compared 5-(3-fluorophenyl)-2,4-dimethyl-3H-1,2,4-triazole-3-thione, a compound of formula I, with a series of β-carbolines in an electrophysiological assay system involving long term potentiation of the hippocampal slice.

hippocampal slice = assay: Electrophysiological assay of long term potentiation of the hippocampal slice
Source text: as §2

[2] = tested on: high affinity choline uptake (HACU); conditions: cited from earlier work; for effect on cortical or hippocampal HACU: after in vivo administration; for effect on HACU: acute administration i.p.
[3] = tested on: carrier that mediates choline transport ([3H] hemicholinium-3 binding in rat brain membranes); assay: [3H] hemicholinium-3 binding in rat brain membranes (cortex) after i.p. dosing of rats; design: species or system Male Sprague-Dawley rats; conditions: for Bmax ± SEM of [3H] hemicholinium-3 binding / Kd: rat brain cortex; for Kd: Kd of the radioligand, read-out: Kd ± SEM of [3H] hemicholinium-3 binding
Source text: Another measure of cholinergic activity is the binding of the radioligand [^3 H] hemicholinium-3, ([^3 H] HC-3) which labels the carrier that mediates choline transport. […] Therefore, the stimulation of [^3 H] HC-3 binding in vitro after treatment with drugs in vivo is also a marker for increased cholinergic activity, predictive of enhanced cognition in treated animals.
The pharmacological properties of these compounds as enhancers of memory and cognition and their relative potencies may be measured through their effect on neuro-transmitters in the brain. Since drugs that block GABA inhibition in the cholinergic neurons of the basal forebrain nuclei will stimulate cholinergic firing, thus stimulating memory, the capacity of the drugs to enhance cognition can be assessed by measuring the increase in cholinergic firing rate. The increase in cholinergic firing rate is measured indirectly by measuring choline uptake or [^3 H] hemicholinium-3 binding in brain cells taken from treated animals.
To test for [^3 H] hemicholinium-3 binding in brain cells from the brain cortex, drugs were dissolved in saline by sonication. Male Sprague-Dawley rats were dosed i.p. and sacrificed by decapitation 60 min after injection. The brains were removed and dissected, and tissue was homogenized in 20 volumes of ice-cold buffer and stored frozen until assayed. Binding was measured by incubating the tissue with varying concentrations of [^3 H]hemicholinium-3 in an isotonic Tris buffer (pH 7.4) for 60 min at room temperature. The incubation was terminated by rapid filtration through Whatman GF/B filters. After drying, the filters were placed in scintillation cocktail and radioactivity was determined using a Beckman scintillation counter. In two experiments, the values for the Kd and Bmax were determined by nonlinear curve-fitting and the average values for samples of 3 or more animals reported.

memory in mice = conditions: versus normal vehicle-treated control mice; cited from earlier work
[4] = tested on: hippocampal high affinity choline uptake; conditions: mice; cited from earlier work
[5] = tested on: time dependent memory deficit in rats; assay: Working memory in the T-maze, rats with 0- or 60-second delay; assay type: in vivo, Male Sprague-Dawley rats; conditions: for Number of errors (5 = chance response), 0-Second Delay / Number of errors (5 = chance response), 60-Second Delay: ten trials, mean ± SEM, n = 12
Procedure: as §1, with “The activity of these compounds in enhancing memory can also be confirmed in experiments that study working memory in rats by evaluating the acquisition of alternation behavior in a T-maze. The maze” for “The maze”, “an error. […] Impairment of” for “an error. Noncompleted trials, where the rat has not made a choice within 3 minutes, are included as errors.5-(3-Fluorophenyl)-2,4-dimethyl-3H-1,2,4-triazole-3-thione is administered one hour before the first trial of each session. Impairment of”, “different ways. […] The table compares the number of incorrect responses by rats tested in trials wherein there is no delay after the forced run and trials wherein there is a 60-second delay. […] For this test, the number of errors expected by random response, i.e., the selection of the correct arm 50% of the time, is 5.” for “different ways.”

[6] = higher concentrations / high doses
[7] = 5 mg/kg i.p., n = 7, 60 min after injection
[8] = 25 mg/kg i.p., n = 3, 60 min after injection
[9] = 25 mg/kg i.p., n = 3, vs saline (Bmax 11.9)
[10] = 1 mg/kg i.p., n = 4, 60 min after injection
[11] = 2.5 mg/kg i.p., n = 4, 60 min after injection

Compound: CN1[C@@H]2C[C@@H](OC(=O)[C@H](CO)c3ccccc3)C[C@H]1[C@@H]1O[C@@H]12 [Scopolamine, reference compound]
Number of errors (12 = chance response), T-maze ([1]; scopolamine 0.15 mg/kg s.c. alone, ** p < 0.01 vs saline): 6.9 ± 0.7

Compound: CCOC(=O)c1cc2c(cn1)[nH]c1ccccc12 [ethyl β-carboline-3-carboxylate]
inverse agonist character (benzodiazepine receptor): full inverse agonists | epileptiform activity in the hippocampal slice (hippocampal slice; [6]): produced epileptiform activity

Compound: NC(=O)CN1CC(O)CC1=O (stereo not drawn) [oxiracetam]
effect on cortical or hippocampal HACU [2]: stimulate cortical or hippocampal HACU

Bmax ± SEM of [3H] hemicholinium-3 binding [3, 7]: 19.0 ± 3.4 fmol/mg Protein | % Increase in Bmax ([3]; 5 mg/kg i.p., n = 7, vs saline (Bmax 11.9)): 60% | Kd [3, 7]: 2.8 ± 0.5 nM
Compound: Cn1nc(-c2ccccc2)n(C)c1=S [5-phenyl-2,4-dimethyl-3H-1,2,4-triazole-3-thione]

Compound: CN(C)CCC=C1c2ccccc2CCc2ccccc21 [amitriptyline]
effect on HACU [2]: no effect

Compound: CCOc1ccccc1OCC1CNCCO1 (stereo not drawn) [viloxazine]
effect on HACU [2]: no effect

Bmax ± SEM of [3H] hemicholinium-3 binding [3, 8]: 18.7 ± 3.2 fmol/mg Protein | % Increase in Bmax [3, 9]: 57% | Kd [3, 8]: 2.14 ± 0.7 nM
Compound: Cn1c(-c2ccccc2)n[nH]c1=S [5-Phenyl-4-methyl-3H-1,2,4-triazole-3-thione]

Compound: CC(C)N(CCNC(=O)CN1CCCC1=O)C(C)C [pramiracetam]
effect on cortical or hippocampal HACU [2]: stimulate cortical or hippocampal HACU

Compound: CC(C)(CO)[C@@H](O)C(=O)NCCCC(=O)O [pantoyl-GABA]
effect on cortical or hippocampal HACU [2]: stimulate cortical or hippocampal HACU

Compound: CN(C)CCCN1c2ccccc2CCc2ccccc21 [imipramine]
effect on HACU [2]: no effect

Compound: CC(=C(CCOC(=O)C(C)C)SSC(CCOC(=O)C(C)C)=C(C)N(C=O)Cc1cnc(C)nc1N)N(C=O)Cc1cnc(C)nc1N (stereo in doubt) [sulbutiamine]
performance in operant conditioning memory task (memory in mice): performance was enhanced | hippocampal high affinity choline uptake [4]: increased

inverse agonist character (benzodiazepine receptor): partial inverse agonist | epileptiform activity in the hippocampal slice (hippocampal slice): produced epileptiform activity
Compound: CNC(=O)c1cc2c(cn1)[nH]c1ccccc12 [N-methyl-β-carboline-3-carboxamide]

Bmax ± SEM of [3H] hemicholinium-3 binding [3, 10]: 20.3 ± 1.2 fmol/mg Protein | % Increase in Bmax ([3]; 1 mg/kg i.p., n = 4, vs saline (Bmax 9.7)): 109% | Bmax ± SEM of [3H] hemicholinium-3 binding [3, 11]: 15.2 ± 3.0 fmol/mg Protein | % Increase in Bmax ([3]; 2.5 mg/kg i.p., n = 4, vs saline (Bmax 9.7)): 57% | Kd [3, 10]: 3.8 ± 0.6 nM | Kd [3, 11]: 6.5 ± 1.8 nM
Compound: Cn1nc(-c2cccc(F)c2)n(C)c1=S [5-(3-Fluorophenyl)-2,4-dimethyl-3H-1,2,4-triazole-3-thione]
Number of errors (5 = chance response), 0-Second Delay ([5]; 1 mg/kg): 0.50 ± 0.26 | Number of errors (5 = chance response), 60-Second Delay ([5]; 1 mg/kg, * p < 0.05 vs 0 seconds delay): 4.42 ± 0.47 | Number of errors (5 = chance response), 0-Second Delay ([5]; 5 mg/kg): 0.67 ± 0.33 | Number of errors (5 = chance response), 60-Second Delay ([5]; 5 mg/kg, * p < 0.05 vs 0 seconds delay): 2.33 ± 0.50 | Number of errors (5 = chance response), 0-Second Delay ([5]; 10 mg/kg): 0.58 ± 0.19 | Number of errors (5 = chance response), 60-Second Delay ([5]; 10 mg/kg): 1.75 ± 0.43 | reversal of time dependent deficit in the T-maze ([5]; 60-second delay): effectively reverses the time dependent deficit | epileptiform activity in the hippocampal slice (hippocampal slice): did not produce the epileptiform activity | Number of errors (12 = chance response), T-maze ([1]; 1 mg/kg with scopolamine 0.15 mg/kg, * p < 0.05 vs saline): 5.0 ± 0.26 | reversal of scopolamine-induced memory deficit in the T-maze ([1]; 5 mg/kg): reverses the scopolamine-induced memory deficit | Number of errors (12 = chance response), T-maze ([1]; 5 mg/kg with scopolamine 0.15 mg/kg, + p < 0.05 vs scopolamine): 4.0 ± 0.8

Compound: COC(=O)c1cc2c(cn1)[nH]c1ccccc12 [methyl β-carboline-3-carboxylate]
inverse agonist character (benzodiazepine receptor): full inverse agonists | epileptiform activity in the hippocampal slice (hippocampal slice; [6]): produced epileptiform activity

Bmax ± SEM of [3H] hemicholinium-3 binding [3, 8]: 16.0 ± 3.0 fmol/mg Protein | % Increase in Bmax [3, 9]: 35% | Kd [3, 8]: 1.5 ± 0.1 nM
Compound: Cn1nc(-c2cccc(C(F)(F)F)c2)n(C)c1=S [5-(3-Trifluoromethylphenyl)-2,4-dimethyl-3H-1,2,4-triazole-3-thione]

Compound: Cc1cc(-c2ccccc2)nnc1NCCN1CCOCC1 [minaprine]
effect on striatal, cortical and hippocampal HACU ([2]; 30 mg/kg acute dose): weak effect

Compound: CNCCCN1c2ccccc2CCc2ccccc21 [desipramine]
effect on HACU [2]: no effect

Compound: CCc1c(C(=O)OC)ncc2[nH]c3cc(OC)c(OC)cc3c12 [methyl 6,7-dimethoxy-4-ethyl-β-carboline-3-carboxylate]
inverse agonist character (benzodiazepine receptor): full inverse agonists | epileptiform activity in the hippocampal slice (hippocampal slice; [6]): produced epileptiform activity
